{"source": "paper PMC8391312", "about": "(Biomedicines, 2021)", "design": "species or system BALB/cAnNHsd mice", "conditions": "mouse, in vivo, ip", "data": [{"substance": "insulin: recombinant insulin (Humalog, Eli-Lilly), positive control in glucose tolerance test", "values": [{"measurement": "blood glucose levels compared to the PBS and s-cal14.2b groups 30 min after administration", "value": "significantly lower"}, {"measurement": "change of blood glucose levels compared to the PBS control group after five minutes", "value": "did not significantly change"}]}]}
